This is an account of results in patent publication US12285501B2, “Compound targeting norepinephrine transporter” (priority 2019, dated 2025).

Data set [1] concerns the target T1, NET (Homo sapiens, UniProt P23975).
T1 construct: SK-N-SH cells expressing NET; host or cells: SK-N-SH
Put plainly: Competitive inhibition of 131I-MIBG uptake in SK-N-SH cells expressing NET. It counts as cell-based. As to conditions: for IC50: non-radioactive compounds, percent of control MIBG uptake. As to the method: (§1) SK-N-SH cells expressing NET were cultivated according to the instructions from the supplier (Sigma-Aldrich Chemie GmbH, Munich, Germany). The cells were transferred to a 12 well plate and incubated in 1 mL EMEM while reaching 2×10^5 cells/well density the day for testing. The medium was removed, and the cells were washed with 1 mL EMEM. A solution of ^18F-AF78 (3.7 kBq) in EMEM (700 μL) was added to each well with or without inhibitors (NE, MHPG, cold AF78 each with a final concentration 100 nM, 1 μM, 10 μM and 100 μM, respectively; Desipramine 10 μM). The plate was incubated for 60 min at 37° C. The cells were washed with ice-cold PBS buffer (1 mL×2) in order to remove unbound tracer. NaOH solution (0.1 N, 500 μL) was added to each well followed by the collection of cell pellet and the measurement in γ-counter (FH412, Frieseke & Höpfner, Erlangen, Germany) using differential energy windows (±20%) for ^18F and ^131I.
[drawing 27] were synthesized. The compounds were tested in SK-N-SH cells expressing NET in order to evaluate their competitive binding affinity against ^131I-MIBG. […] Results are expressed as percent of control MIBG uptake. […] (IC50 of AF78 vs. MHPG p value<0.01)
NE and cold MIBG were used as references. As a result, cold reference 2 (AF78) could inhibit the cell uptake of ^131I-MIBG in a concentration-dependent manner. In contrast, cold reference 1 was not able to block the uptake of ^131I-MIBG even at the highest concentration tested. Inhibition was only 40% at 100 μM. […] The introduction of long alkyl chain at 3-position on the benzene ring seems not to be tolerated, whereas introduction at the 4-position seems to be well tolerated.

In data set [2] the target is T1, NET. Put plainly: Competitive inhibition of 18F-AF78 uptake in SK-N-SH cells. It counts as cell-based. Conditions: percentage of control AF78 uptake. As to the method:
as §1
To further confirm the tracer's binding affinity, ^18F-labeled AF78 was used in competitive inhibition assay, to which different concentrations of NE, MHPG, and cold reference 2 (AF78) were added. […] Results are expressed as percentage of control AF78 uptake. […] (IC50 of MHPG vs. AF78, p value<0.05). […]

The conditions of data set [3]: time frame of 50-60 min imaging; Raffel et al., J. Nucl. Med. 2017; cited from earlier work.
Data set [4] has as its target T2, NET (Rattus norvegicus, UniProt Q63380).
T2 construct: tissue Japan SLC, Inc., Japan (animals); host or cells: heart (myocardium) of healthy male Wistar rats, in vivo
Put plainly: Ex vivo autoradiography of left ventricular short axis slices. It counts as in vivo. On the procedure:
Standard protocols and data analysis methods for non-invasive PET imaging of small animals have been established in the working group of the inventors (Rischpler C. et al., Eur J Nucl Med Mol Imaging. 2013; 40(7): 1077-83). Healthy male Wistar rats (Japan SLC, Inc., Japan) each weighing 200-250 g were used. The rats are anaesthetized with 2% isoflurane. 10-20 MBq of the tracer was administered via tail vein injection. Ten minutes after the tracer administration, the animals were immediately euthanized. Hearts, livers and blood were obtained for ex vivo analysis with autoradiography (Typhoon FLA 7000) and tissue counts with γ-counter (1480 WIZARD™ 3″). Following weight and decay correction of tissue counts, the heart to blood (H/B) and heart to liver (H/L) count ratio were calculated, respectively. For autoradiography, the rats were first injected via tail vein either with or without (control) NET blocker phenoxynezamine 50 mg/kg after anaesthesia. After 10 min, the tracer (10-20 MBq) was administered. The hearts were harvested 10 min later, frozen, and cut into 20 μm short axis slices using a cryostat (Cryotome FSE, Thermo Fisher Scientific). […]

The test system of data set [5] is NET. Put plainly: Dynamic PET time-activity curves in Cynomolgus monkey with and without DMI pretreatment. It counts as in vivo. As to the method: For control, Cynomolgus monkey (male, 5.3 kg) was maintained anaesthetized during the imaging study using 3.3% seboflurane. Shortly before receiving an intravenous injection of the tracer (44 MBq), a 120 min dynamic PET session was started. In addition, to investigate the inhibition of cardiac neuronal uptake-1, DMI (1 mg/kg, iv.) was injected to Cynomolgus monkey (female, 5.6 kg) 10 min before the tracer (18.2 MBq) injection and PET assessment started. PET was conducted using a PCA-2000A positron scanner (Toshiba Medical Systems Corporation, Otawara, Japan). Sinograms were collected with the following pattern: 10 sec×12, 30 sec×6, 300 sec×23. The tissue uptake was determined as arbitrary unit (A.U.), from which a time-activity curves of different organs were generated.
A tissue bio-distribution consistent with that observed in rat could be observed with clear long term and stable cardiac uptake during the total 120 min scan whereas uptake in adjacent liver and lungs was low. Representative time activity curves derived from ^18F-AF78 dynamic images in control and sympathetic nerve blocked monkey were generated from the scanning data. […] In the control, activity in the liver reached a peak a little while after the tracer injection, then decreased slowly to blood level after 60 min.

Data set [6] can be described thus: Static PET images of cardiac uptake in several species. Conditions: healthy rats, rabbits, pigs and monkeys. It counts as in vivo.
In data set [7] the test system is NET. Put plainly: Kinetic study in monkeys' hearts (DMI blocking, DMI chase, tyramine chase). It counts as in vivo, monkey. The source says:
A kinetic study has been performed with ^18F-AF78 in monkeys' hearts. The results confirmed the specific uptake of ^18F-AF78 via NET and stable vesicular storage mechanism in the sympathetic nerve terminals. […] Furthermore, a continuous tyramine (TYR) chase was applied after tracer administration. Tyramine is known as agent causing a catecholamine release thus enhancing tracer washout. […] Decrease was statistically significant (p<0.005) compared to control group (FIG. 18, lower panel).

Data set [8] is described as follows: Biodistribution study (SUV) in monkey. It counts as in vivo. As to the method: A further biodistribution study with ^18F-AF78 in monkey has been conducted. […] The liver uptake is decreasing and is lower than cardiac uptake 35 min after tracer administration.
Data set [9] has as its target T2, NET. Put plainly: Cardiac PET imaging in healthy rats with and without NET blockade. It counts as in vivo. The source says:
Rats were maintained anaesthetized during the whole experiment by 2% isoflurane. All scans were obtained using a dedicated small-animal PET system (microPET FOCUS 120, SIEMENS, Germany). The PET imaging protocol was designed to assess the systemic and myocardial tracer distribution of ^18F-AF78. Shortly before the injection of 10-20 MBq of ^18F-AF78 via the tail vein, a dynamic PET scan was initiated. In order to evaluate the cardiac uptake mechanism of the tracer, rats were pretreated with phenoxybenzamine (50 mg/kg intravenously, Sigma-Aldrich, Tokyo, Japan). Ten minutes after the pretreatment, 10-20 MBq of ^18F-AF78 was administered via the tail vein. A 10 min dynamic PET session was started shortly before the tracer injection. PET image was acquired in list-mode format. The data were sorted into 3-dimensional sonograms, which were then rebind with a Fourier algorithm to reconstruct dynamic images using a 2-dimensional ordered-subset expectation maximization (OSEM) algorithm. All images were corrected for ^18F decay, random, and dead time; correction for attenuation was not performed (Higuchi JNM 2013). The obtained PET images were analyzed with the public domain tool AMIDE imaging software (A Medical Imaging Data Examiner, version 1.01). […]

Data set [10] addresses T2, NET. Put plainly: Ex vivo tissue counting study (heart/tissue distribution ratio) with and without NET blockade. It counts as in vivo. As to conditions: rats. As to the method:
Standard protocols and data analysis methods for non-invasive PET imaging of small animals have been established in the working group of the inventors (Rischpler C. et al., Eur J Nucl Med Mol Imaging. 2013; 40(7): 1077-83). Healthy male Wistar rats (Japan SLC, Inc., Japan) each weighing 200-250 g were used. The rats are anaesthetized with 2% isoflurane. 10-20 MBq of the tracer was administered via tail vein injection. Ten minutes after the tracer administration, the animals were immediately euthanized. Hearts, livers and blood were obtained for ex vivo analysis with autoradiography (Typhoon FLA 7000) and tissue counts with γ-counter (1480 WIZARD™ 3″). Following weight and decay correction of tissue counts, the heart to blood (H/B) and heart to liver (H/L) count ratio were calculated, respectively. For autoradiography, the rats were first injected via tail vein either with or without (control) NET blocker phenoxynezamine 50 mg/kg after anaesthesia. After 10 min, the tracer (10-20 MBq) was administered. The hearts were harvested 10 min later, frozen, and cut into 20 μm short axis slices using a cryostat (Cryotome FSE, Thermo Fisher Scientific). To obtain the distribution of the tracer, autoradiography plates (Fuji SR-type image plate, Fujifilm Corporation, Tokyo, Japan) were exposed to the short axis slices immediately for 18 h and thereafter imaged using a digital autoradiographic system (Typhoon FLA 7000).
The columns are the mean value of 2 rats. Data were determined 10 min post injection. Y-axis represents the heart/tissue distribution ratio. […] In comparison, according to Raffel, D. et al., J. Nucl. Med. 2017, 58 (Suppl 1): 96 MHPG and PHPG show tissue concentration ratios at a time frame of 50-60 min imaging as follows: MHPG with H/B 3.6 and H/L 2.3; PHPG with 5.4 and 1.1, respectively.

Data set [11] has as its target T1, NET. Put plainly: Tracer cell uptake in SK-N-SH cells with and without NET inhibitor desipramine (DMI). It counts as cell-based. Conditions: desipramine 10 μM, 60 min at 37° C. On the procedure: as §1
After successful radiolabeling, ^18F-AF78 was also tested in SK-N-SH cells in order to check cell uptake. Antidepressant desipramine (DMI) was used as the inhibitor of NET. The addition of DMI blocks cell uptake of tracers specifically transported by NET.

[12] abbreviates: 10 min post injection, control, mean of 2 rats.
[13] abbreviates: PhB 50 mg/kg 10 min before tracer, 10 min post injection.

T2 sequence (Q63380 1-617): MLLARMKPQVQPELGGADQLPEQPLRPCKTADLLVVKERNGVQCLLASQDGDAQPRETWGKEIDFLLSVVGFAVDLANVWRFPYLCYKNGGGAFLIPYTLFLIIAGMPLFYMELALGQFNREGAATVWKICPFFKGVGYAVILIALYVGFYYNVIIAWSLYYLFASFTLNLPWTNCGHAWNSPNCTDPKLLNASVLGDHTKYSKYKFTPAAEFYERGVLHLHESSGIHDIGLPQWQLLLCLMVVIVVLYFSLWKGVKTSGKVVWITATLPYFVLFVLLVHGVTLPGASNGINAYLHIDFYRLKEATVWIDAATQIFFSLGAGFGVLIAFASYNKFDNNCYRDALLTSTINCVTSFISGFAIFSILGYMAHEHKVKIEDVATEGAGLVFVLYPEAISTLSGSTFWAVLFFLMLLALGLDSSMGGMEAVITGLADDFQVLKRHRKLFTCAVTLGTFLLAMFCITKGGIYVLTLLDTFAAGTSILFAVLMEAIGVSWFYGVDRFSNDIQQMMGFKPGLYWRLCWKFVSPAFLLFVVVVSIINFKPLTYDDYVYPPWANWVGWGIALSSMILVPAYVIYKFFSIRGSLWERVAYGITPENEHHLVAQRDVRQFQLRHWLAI
T1 sequence (P23975 whole entry): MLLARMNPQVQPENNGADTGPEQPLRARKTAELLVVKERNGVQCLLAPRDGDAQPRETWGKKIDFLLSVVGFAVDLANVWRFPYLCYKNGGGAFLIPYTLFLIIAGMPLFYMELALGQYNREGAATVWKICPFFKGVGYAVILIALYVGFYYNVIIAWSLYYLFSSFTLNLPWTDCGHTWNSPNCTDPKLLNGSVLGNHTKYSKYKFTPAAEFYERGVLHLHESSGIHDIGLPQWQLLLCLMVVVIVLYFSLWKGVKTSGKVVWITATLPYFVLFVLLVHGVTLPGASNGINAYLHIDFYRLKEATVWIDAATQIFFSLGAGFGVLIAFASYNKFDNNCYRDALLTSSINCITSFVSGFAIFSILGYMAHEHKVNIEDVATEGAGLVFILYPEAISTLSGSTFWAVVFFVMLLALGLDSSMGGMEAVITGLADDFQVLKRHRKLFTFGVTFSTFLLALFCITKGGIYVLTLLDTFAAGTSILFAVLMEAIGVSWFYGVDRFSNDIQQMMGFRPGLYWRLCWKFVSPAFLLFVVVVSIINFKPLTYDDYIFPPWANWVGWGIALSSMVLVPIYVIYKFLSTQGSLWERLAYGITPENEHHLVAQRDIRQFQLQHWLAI

In the case of `N=C(N)NCCc1ccc(OCCCF)c(F)c1` [AF78], the IC50 on NET [1] was 2570 ± 1370 nM; on NET [2], 2680 ± 830 nM.
On to `N=C(N)NCCc1ccc(O)c([18F])c1` [PHPG, ^18F-3-fluoro-4-hydroxyphenethylguanidine], for which, in [3], the “H/B tissue concentration ratio” value was 5.4 and the “H/L tissue concentration ratio” value is 1.1.
Regarding `NC(N)=NCCc1ccc(OCCC[18F])c(F)c1` [^18F-AF78], the “Tracer distribution in myocardium (autoradiography)” value on NET [4] (rat LVSA slices, control) is “homogeneous tracer uptake throughout the left ventricular walls”. Besides, the “Tracer distribution after PhB pretreatment (autoradiography)” value at NET [4] (rat, PhB 50 mg/kg i.v. 10 min before tracer) was “could be inhibited by a pretreatment with phenoxybenzamine”. In addition, the “Time after which liver activity decreased to blood level” value with NET [5] (control monkey) worked out at 60 min. The “Cardiac uptake over scan time” value with NET [5] (control monkey, 120 min dynamic PET) was “maintained activity throughout the entire 120 min scan time”. For the same compound, the “Liver uptake after DMI pretreatment” value with NET [5] (monkey, DMI 1 mg/kg iv) is “not affected by pretreatment with DMI”. For the same compound, the “Heart uptake after DMI pretreatment” value in the data set with NET [5] (monkey, DMI 1 mg/kg iv 10 min before tracer) is listed as “markedly reduced the heart uptake level”. Further, the “Cardiac uptake in static PET images across species” value in [6] is recorded as “works in all of these species”. Besides, the “Cardiac tracer uptake with DMI chase vs control” value with NET [7] (DMI injected 10 min after tracer) was “no difference can be seen compared to control group”. The “Cardiac tracer uptake with DMI blocking vs control” value with NET [7] (DMI injected 10 min before tracer) was “specifically blocked the tracer uptake with significant difference”. Further, the “Cardiac tracer uptake with tyramine chase vs control” value with NET [7] (continuous tyramine chase after tracer) was “decreased considerable”. For the same compound, in data set [8], the “Biodistribution (SUV) result” value is “stable cardiac uptake along with fast blood pool washout and relative fast liver uptake washout”; the “Time after tracer administration at which liver uptake is lower than cardiac uptake” value is on record as 35 min. For the same compound, the “Myocardial tracer uptake after NET blockade, static PET images” value at NET [9] (PhB 50 mg/kg iv 10 min before tracer) was “significantly decreased the myocardial tracer uptake”. Besides, the “Myocardial tracer uptake, static PET images” value at NET [9] (no pretreatment) is “homogeneous and clear tracer uptake throughout the left ventricular wall”. Moreover, on NET [10] (setting [12]), the “Heart-to-Blood (H/B) ratio” value is 12.54 and the “Heart-to-Liver (H/L) ratio” value is listed as 6.14. At NET [10] (PhB 50 mg/kg), the “Decline in the H/B ratio by PhB” value is listed as “approximately 6 fold” and the “Decline in the H/L ratio by PhB” value is listed as roughly 5 fold. In addition, at NET [10] (setting [13]), the “Heart-to-Blood (H/B) ratio after NET blockade” value was determined as 2.41 and the “Heart-to-Liver (H/L) ratio after NET blockade” value was found to be 1.30. Besides, the “Tracer uptake inhibited by the addition of DMI” value on NET [11] amounted to 94%.
`N=C(N)NCc1cccc([131I])c1` [^131I-MIBG, ^123/131I-meta-iodobenzylguanidine, reference compound]: the “Tracer uptake inhibited by the addition of DMI” value on NET [11] is on record as 87%.
The compound `N=C(N)NCCc1ccc(F)c(OCCCF)c1` [cold reference 1] showed an inhibition at 100 µM on NET [1] (at 100 μM (highest concentration tested)) of 40%.
As to “^18F-4-fluoro-3-hydroxyphenethylguanidine [MHPG]”, in data set [3], the “H/B tissue concentration ratio” value was 3.6 and the “H/L tissue concentration ratio” value is on record as 2.3. At NET [1], the IC50 was found to be 6800 ± 730 nM. Further, the IC50 at NET [2] is 850 ± 630 nM.
